According to the NIST ThermoML archive (doi:10.1021/je400055v):
Numbers after ± are expanded uncertainties.

Settings: Liquid, Vibrating tube method

Cc1ccccc1O [2-methylphenol]
Settings | mass density [kg/m3]
313.2 K, 1022 kPa | 1027.5 ± 0.2
313.2 K, 2031 kPa | 1028.1 ± 0.2
313.2 K, 3017 kPa | 1028.7 ± 0.2
313.2 K, 4012 kPa | 1029.2 ± 0.2
313.2 K, 5018 kPa | 1029.8 ± 0.2
313.2 K, 6010 kPa | 1030.4 ± 0.2
313.2 K, 7005 kPa | 1030.9 ± 0.2
313.2 K, 8006 kPa | 1031.5 ± 0.2
313.2 K, 9004 kPa | 1032 ± 0.2
313.2 K, 10005 kPa | 1032.6 ± 0.2
323.16 K, 1013 kPa | 1018.7 ± 0.2
323.16 K, 2039 kPa | 1019.3 ± 0.2
323.16 K, 3007 kPa | 1019.9 ± 0.2
323.16 K, 4009 kPa | 1020.5 ± 0.2
323.16 K, 5005 kPa | 1021.1 ± 0.2
323.16 K, 6004 kPa | 1021.7 ± 0.2
323.16 K, 6999 kPa | 1022.2 ± 0.2
323.16 K, 8008 kPa | 1022.8 ± 0.2
323.16 K, 9002 kPa | 1023.4 ± 0.2
323.16 K, 10005 kPa | 1024 ± 0.2
333.1 K, 1010 kPa | 1009.9 ± 0.2
333.1 K, 2033 kPa | 1010.5 ± 0.2
333.1 K, 3009 kPa | 1011.1 ± 0.2
333.1 K, 4014 kPa | 1011.8 ± 0.2
333.1 K, 5004 kPa | 1012.4 ± 0.2
333.1 K, 5998 kPa | 1013 ± 0.2
333.1 K, 7000 kPa | 1013.6 ± 0.2
333.1 K, 8009 kPa | 1014.2 ± 0.2
333.1 K, 9004 kPa | 1014.8 ± 0.2
333.1 K, 10010 kPa | 1015.4 ± 0.2
343.06 K, 1023 kPa | 1000.8 ± 0.2
343.06 K, 2024 kPa | 1001.6 ± 0.2
343.06 K, 3015 kPa | 1002.2 ± 0.2
343.06 K, 4003 kPa | 1002.9 ± 0.2
343.06 K, 5009 kPa | 1003.6 ± 0.2
343.06 K, 6005 kPa | 1004.2 ± 0.2
343.06 K, 7008 kPa | 1004.8 ± 0.2
343.06 K, 8003 kPa | 1005.5 ± 0.2
343.06 K, 8999 kPa | 1006.1 ± 0.2
343.06 K, 10004 kPa | 1006.7 ± 0.2
352.99 K, 1043 kPa | 991.9 ± 0.2
352.99 K, 2000 kPa | 992.6 ± 0.2
352.99 K, 3034 kPa | 993.3 ± 0.2
352.99 K, 4015 kPa | 994 ± 0.2
352.99 K, 5033 kPa | 994.6 ± 0.2
352.99 K, 6007 kPa | 995.3 ± 0.2
352.99 K, 7016 kPa | 996 ± 0.2
352.99 K, 8006 kPa | 996.7 ± 0.2
352.99 K, 9015 kPa | 997.3 ± 0.2
352.99 K, 10014 kPa | 998 ± 0.2
